From the NIST ThermoML archive (doi:10.1021/je060271a)
Several values for one entry are separate records, joined by “and”; a condition that tells them apart may be missing. Equal values may be shown once. ± gives the expanded uncertainty stated by the source.

Conditions: Liquid, Vibrating tube method

CCCCC(=O)OCC(COC(=O)CCCC)(COC(=O)CCCC)COC(=O)CCCC [pentaerythritol tetrapentanoate]
Conditions	mass density
283.15 K, 33510 kPa	1045.5 ± 1.3 kg/m3
283.15 K, 33550 kPa	1045.6 ± 1.3 kg/m3
283.15 K, 33599 kPa	1045.6 ± 1.3 kg/m3
283.15 K, 33639 kPa	1045.6 ± 1.3 kg/m3
283.15 K, 33681 kPa	1045.6 ± 1.3 kg/m3
283.15 K, 33731 kPa	1045.6 ± 1.3 kg/m3
283.15 K, 33772 kPa	1045.7 ± 1.3 kg/m3
283.15 K, 33815 kPa	1045.7 ± 1.3 kg/m3
283.15 K, 33865 kPa	1045.8 ± 1.3 kg/m3
283.15 K, 33908 kPa	1045.8 ± 1.3 kg/m3
283.15 K, 33951 kPa	1045.8 ± 1.3 kg/m3
283.15 K, 34004 kPa	1045.7 ± 1.3 kg/m3
283.15 K, 34048 kPa	1045.8 ± 1.3 kg/m3
283.15 K, 34093 kPa	1045.7 ± 1.3 kg/m3
283.15 K, 34144 kPa	1045.8 ± 1.3 kg/m3
283.15 K, 34173 kPa	1046 ± 1.3 kg/m3
283.15 K, 34198 kPa	1045.9 ± 1.3 kg/m3
283.15 K, 34220 kPa	1046 ± 1.3 kg/m3
283.15 K, 34242 kPa	1045.8 ± 1.3 kg/m3
283.15 K, 34265 kPa	1045.9 ± 1.3 kg/m3
283.15 K, 34290 kPa	1045.9 ± 1.3 kg/m3
283.15 K, 34312 kPa	1046 ± 1.3 kg/m3
283.15 K, 34335 kPa	1046 ± 1.3 kg/m3
283.15 K, 34364 kPa	1045.9 ± 1.3 kg/m3
283.15 K, 34387 kPa	1045.9 ± 1.3 kg/m3
283.15 K, 34410 kPa	1046 ± 1.3 kg/m3
283.15 K, 34438 kPa	1046 ± 1.3 kg/m3
283.15 K, 34461 kPa	1046 ± 1.3 kg/m3
283.15 K, 34485 kPa	1046 ± 1.3 kg/m3
283.15 K, 34516 kPa	1046.1 ± 1.3 kg/m3
283.15 K, 34542 kPa	1046 ± 1.3 kg/m3
283.15 K, 34572 kPa	1046.1 ± 1.3 kg/m3
283.15 K, 34604 kPa	1046 ± 1.3 kg/m3
283.15 K, 34620 kPa	1046.1 ± 1.3 kg/m3
283.15 K, 34636 kPa	1046 ± 1.3 kg/m3
283.15 K, 34638 kPa	1046.3 ± 1.3 kg/m3
283.15 K, 34639 kPa	1046.1 ± 1.3 kg/m3
283.16 K, 25316 kPa	1041.3 ± 1.3 kg/m3
303.15 K, 106.42 kPa	1010.9 ± 1.2 kg/m3
303.15 K, 106.59 kPa	1010.8 ± 1.2 kg/m3 and 1010.9 ± 1.2 kg/m3
303.15 K, 106.6 kPa	1010.9 ± 1.2 kg/m3 and 1010.8 ± 1.2 kg/m3
303.15 K, 106.76 kPa	1010.9 ± 1.2 kg/m3
303.15 K, 106.77 kPa	1010.9 ± 1.2 kg/m3
303.15 K, 106.94 kPa	1010.9 ± 1.2 kg/m3 and 1010.8 ± 1.2 kg/m3
303.15 K, 107.11 kPa	1010.9 ± 1.2 kg/m3
303.15 K, 107.29 kPa	1010.9 ± 1.2 kg/m3
303.15 K, 108.17 kPa	1010.9 ± 1.2 kg/m3
303.15 K, 109.2 kPa	1010.9 ± 1.2 kg/m3
303.15 K, 110.59 kPa	1010.9 ± 1.2 kg/m3
303.15 K, 112.86 kPa	1010.8 ± 1.2 kg/m3
303.15 K, 117.2 kPa	1011 ± 1.2 kg/m3
303.15 K, 123.99 kPa	1010.9 ± 1.2 kg/m3
303.15 K, 133.19 kPa	1010.9 ± 1.2 kg/m3
303.15 K, 144.48 kPa	1010.9 ± 1.2 kg/m3
303.15 K, 156.14 kPa	1010.9 ± 1.2 kg/m3
303.15 K, 171.79 kPa	1010.8 ± 1.2 kg/m3
303.15 K, 193.18 kPa	1011 ± 1.2 kg/m3
303.15 K, 228.98 kPa	1011 ± 1.2 kg/m3
303.15 K, 269.29 kPa	1010.9 ± 1.2 kg/m3
303.15 K, 314.67 kPa	1011 ± 1.2 kg/m3
303.15 K, 395.83 kPa	1011.2 ± 1.2 kg/m3
303.15 K, 513.49 kPa	1011.2 ± 1.2 kg/m3
303.15 K, 630.95 kPa	1011.3 ± 1.2 kg/m3
303.15 K, 647.46 kPa	1011.3 ± 1.2 kg/m3
303.15 K, 648.16 kPa	1011.3 ± 1.2 kg/m3
303.15 K, 649.02 kPa	1011.3 ± 1.2 kg/m3
303.15 K, 649.71 kPa	1011.3 ± 1.2 kg/m3
303.15 K, 650.58 kPa	1011.3 ± 1.2 kg/m3
303.15 K, 651.45 kPa	1011.3 ± 1.2 kg/m3
303.15 K, 652.32 kPa	1011.2 ± 1.2 kg/m3
303.15 K, 652.67 kPa	1011.3 ± 1.2 kg/m3
303.15 K, 653.36 kPa	1011.3 ± 1.2 kg/m3
303.15 K, 654.41 kPa	1011.3 ± 1.2 kg/m3
303.15 K, 654.92 kPa	1011.2 ± 1.2 kg/m3
303.15 K, 655.97 kPa	1011.2 ± 1.2 kg/m3
303.15 K, 657.2 kPa	1011.2 ± 1.2 kg/m3
303.15 K, 657.72 kPa	1011.4 ± 1.2 kg/m3
303.15 K, 658.58 kPa	1011.3 ± 1.2 kg/m3
303.15 K, 659.27 kPa	1011.1 ± 1.2 kg/m3
303.15 K, 660.31 kPa	1011.3 ± 1.2 kg/m3
303.15 K, 661.18 kPa	1011.3 ± 1.2 kg/m3
303.15 K, 661.53 kPa	1011.3 ± 1.2 kg/m3
303.15 K, 662.58 kPa	1011.2 ± 1.2 kg/m3
303.15 K, 664.14 kPa	1011.4 ± 1.2 kg/m3
303.15 K, 666.75 kPa	1011.3 ± 1.2 kg/m3
303.15 K, 667.79 kPa	1011.3 ± 1.2 kg/m3
303.15 K, 668.65 kPa	1011.3 ± 1.2 kg/m3
303.15 K, 669.35 kPa	1011.2 ± 1.2 kg/m3
303.15 K, 670.22 kPa	1011.2 ± 1.2 kg/m3
303.15 K, 675.62 kPa	1011.2 ± 1.2 kg/m3
303.15 K, 675.96 kPa	1011.2 ± 1.2 kg/m3
303.15 K, 676.49 kPa	1011.4 ± 1.2 kg/m3
303.15 K, 677.36 kPa	1011.3 ± 1.2 kg/m3
303.15 K, 678.05 kPa	1011.3 ± 1.2 kg/m3
303.15 K, 679.27 kPa	1011.2 ± 1.2 kg/m3
303.15 K, 680.14 kPa	1011.3 ± 1.2 kg/m3
303.15 K, 681.01 kPa	1011.3 ± 1.2 kg/m3
303.15 K, 681.71 kPa	1011.3 ± 1.2 kg/m3
303.15 K, 682.41 kPa	1011.2 ± 1.2 kg/m3
303.15 K, 685.7 kPa	1011.3 ± 1.2 kg/m3
303.15 K, 686.57 kPa	1011.3 ± 1.2 kg/m3
303.15 K, 688.83 kPa	1011.2 ± 1.2 kg/m3
303.15 K, 689.69 kPa	1011.2 ± 1.2 kg/m3
303.15 K, 690.56 kPa	1011.4 ± 1.2 kg/m3
303.15 K, 691.43 kPa	1011.3 ± 1.2 kg/m3
303.15 K, 692.3 kPa	1011.4 ± 1.2 kg/m3
303.15 K, 693.35 kPa	1011.3 ± 1.2 kg/m3
303.15 K, 694.56 kPa	1011.3 ± 1.2 kg/m3
303.15 K, 695.08 kPa	1011.3 ± 1.2 kg/m3
303.15 K, 696.12 kPa	1011.3 ± 1.2 kg/m3
303.15 K, 697.16 kPa	1011.3 ± 1.2 kg/m3
303.15 K, 698.02 kPa	1011.3 ± 1.2 kg/m3
303.15 K, 698.55 kPa	1011.3 ± 1.2 kg/m3
303.15 K, 699.59 kPa	1011.3 ± 1.2 kg/m3
303.15 K, 703.59 kPa	1011.2 ± 1.2 kg/m3
303.15 K, 704.11 kPa	1011.3 ± 1.2 kg/m3
303.15 K, 705.15 kPa	1011.3 ± 1.2 kg/m3
303.15 K, 706.21 kPa	1011.3 ± 1.2 kg/m3
303.15 K, 707.07 kPa	1011.3 ± 1.2 kg/m3
303.15 K, 708.28 kPa	1011.3 ± 1.2 kg/m3
303.15 K, 709.15 kPa	1011.2 ± 1.2 kg/m3
303.15 K, 710.02 kPa	1011.3 ± 1.2 kg/m3
303.15 K, 711.24 kPa	1011.3 ± 1.2 kg/m3
303.15 K, 711.93 kPa	1011.4 ± 1.2 kg/m3
303.15 K, 712.98 kPa	1011.3 ± 1.2 kg/m3
303.15 K, 713.84 kPa	1011.2 ± 1.2 kg/m3
303.15 K, 714.72 kPa	1011.3 ± 1.2 kg/m3
303.15 K, 715.75 kPa	1011.3 ± 1.2 kg/m3
303.15 K, 716.62 kPa	1011.3 ± 1.2 kg/m3
303.15 K, 717.84 kPa	1011.3 ± 1.2 kg/m3
303.15 K, 719.05 kPa	1011.4 ± 1.2 kg/m3
303.15 K, 720.1 kPa	1011.3 ± 1.2 kg/m3
303.15 K, 720.79 kPa	1011.3 ± 1.2 kg/m3
303.15 K, 721.67 kPa	1011.2 ± 1.2 kg/m3
303.15 K, 722.71 kPa	1011.3 ± 1.2 kg/m3
303.15 K, 723.76 kPa	1011.3 ± 1.2 kg/m3
303.15 K, 724.45 kPa	1011.3 ± 1.2 kg/m3
303.15 K, 725.83 kPa	1011.4 ± 1.2 kg/m3
303.15 K, 726.87 kPa	1011.3 ± 1.2 kg/m3
303.15 K, 727.92 kPa	1011.4 ± 1.2 kg/m3
303.15 K, 728.79 kPa	1011.3 ± 1.2 kg/m3
303.15 K, 730.17 kPa	1011.2 ± 1.2 kg/m3
303.15 K, 730.7 kPa	1011.4 ± 1.2 kg/m3
303.15 K, 731.58 kPa	1011.3 ± 1.2 kg/m3
303.15 K, 733.65 kPa	1011.3 ± 1.2 kg/m3
303.15 K, 734.7 kPa	1011.3 ± 1.2 kg/m3
303.15 K, 735.91 kPa	1011.2 ± 1.2 kg/m3
303.15 K, 736.78 kPa	1011.2 ± 1.2 kg/m3
303.15 K, 737.82 kPa	1011.3 ± 1.2 kg/m3
303.15 K, 739.04 kPa	1011.4 ± 1.2 kg/m3
303.15 K, 740.26 kPa	1011.3 ± 1.2 kg/m3
303.15 K, 741.3 kPa	1011.3 ± 1.2 kg/m3
303.15 K, 742.16 kPa	1011.4 ± 1.2 kg/m3
303.15 K, 743.2 kPa	1011.3 ± 1.2 kg/m3
303.15 K, 744.08 kPa	1011.2 ± 1.2 kg/m3
303.15 K, 745.47 kPa	1011.3 ± 1.2 kg/m3
303.15 K, 746.33 kPa	1011.3 ± 1.2 kg/m3
303.15 K, 747.56 kPa	1011.3 ± 1.2 kg/m3
303.15 K, 748.76 kPa	1011.4 ± 1.2 kg/m3
303.15 K, 749.63 kPa	1011.3 ± 1.2 kg/m3
303.15 K, 750.5 kPa	1011.4 ± 1.2 kg/m3
